The term inhibition denotes the percentage by which the read-out fell short of the control.

Structures can show the parent of a compound that is named as a salt.

For one experiment, the target named is T1, NaV1.7 (Homo sapiens, UniProt Q15858).
T1 construct: expressed in transfected cells; host or cells: HEK293 (tetracycline-inducible)
T1 sequence (Q15858 whole entry): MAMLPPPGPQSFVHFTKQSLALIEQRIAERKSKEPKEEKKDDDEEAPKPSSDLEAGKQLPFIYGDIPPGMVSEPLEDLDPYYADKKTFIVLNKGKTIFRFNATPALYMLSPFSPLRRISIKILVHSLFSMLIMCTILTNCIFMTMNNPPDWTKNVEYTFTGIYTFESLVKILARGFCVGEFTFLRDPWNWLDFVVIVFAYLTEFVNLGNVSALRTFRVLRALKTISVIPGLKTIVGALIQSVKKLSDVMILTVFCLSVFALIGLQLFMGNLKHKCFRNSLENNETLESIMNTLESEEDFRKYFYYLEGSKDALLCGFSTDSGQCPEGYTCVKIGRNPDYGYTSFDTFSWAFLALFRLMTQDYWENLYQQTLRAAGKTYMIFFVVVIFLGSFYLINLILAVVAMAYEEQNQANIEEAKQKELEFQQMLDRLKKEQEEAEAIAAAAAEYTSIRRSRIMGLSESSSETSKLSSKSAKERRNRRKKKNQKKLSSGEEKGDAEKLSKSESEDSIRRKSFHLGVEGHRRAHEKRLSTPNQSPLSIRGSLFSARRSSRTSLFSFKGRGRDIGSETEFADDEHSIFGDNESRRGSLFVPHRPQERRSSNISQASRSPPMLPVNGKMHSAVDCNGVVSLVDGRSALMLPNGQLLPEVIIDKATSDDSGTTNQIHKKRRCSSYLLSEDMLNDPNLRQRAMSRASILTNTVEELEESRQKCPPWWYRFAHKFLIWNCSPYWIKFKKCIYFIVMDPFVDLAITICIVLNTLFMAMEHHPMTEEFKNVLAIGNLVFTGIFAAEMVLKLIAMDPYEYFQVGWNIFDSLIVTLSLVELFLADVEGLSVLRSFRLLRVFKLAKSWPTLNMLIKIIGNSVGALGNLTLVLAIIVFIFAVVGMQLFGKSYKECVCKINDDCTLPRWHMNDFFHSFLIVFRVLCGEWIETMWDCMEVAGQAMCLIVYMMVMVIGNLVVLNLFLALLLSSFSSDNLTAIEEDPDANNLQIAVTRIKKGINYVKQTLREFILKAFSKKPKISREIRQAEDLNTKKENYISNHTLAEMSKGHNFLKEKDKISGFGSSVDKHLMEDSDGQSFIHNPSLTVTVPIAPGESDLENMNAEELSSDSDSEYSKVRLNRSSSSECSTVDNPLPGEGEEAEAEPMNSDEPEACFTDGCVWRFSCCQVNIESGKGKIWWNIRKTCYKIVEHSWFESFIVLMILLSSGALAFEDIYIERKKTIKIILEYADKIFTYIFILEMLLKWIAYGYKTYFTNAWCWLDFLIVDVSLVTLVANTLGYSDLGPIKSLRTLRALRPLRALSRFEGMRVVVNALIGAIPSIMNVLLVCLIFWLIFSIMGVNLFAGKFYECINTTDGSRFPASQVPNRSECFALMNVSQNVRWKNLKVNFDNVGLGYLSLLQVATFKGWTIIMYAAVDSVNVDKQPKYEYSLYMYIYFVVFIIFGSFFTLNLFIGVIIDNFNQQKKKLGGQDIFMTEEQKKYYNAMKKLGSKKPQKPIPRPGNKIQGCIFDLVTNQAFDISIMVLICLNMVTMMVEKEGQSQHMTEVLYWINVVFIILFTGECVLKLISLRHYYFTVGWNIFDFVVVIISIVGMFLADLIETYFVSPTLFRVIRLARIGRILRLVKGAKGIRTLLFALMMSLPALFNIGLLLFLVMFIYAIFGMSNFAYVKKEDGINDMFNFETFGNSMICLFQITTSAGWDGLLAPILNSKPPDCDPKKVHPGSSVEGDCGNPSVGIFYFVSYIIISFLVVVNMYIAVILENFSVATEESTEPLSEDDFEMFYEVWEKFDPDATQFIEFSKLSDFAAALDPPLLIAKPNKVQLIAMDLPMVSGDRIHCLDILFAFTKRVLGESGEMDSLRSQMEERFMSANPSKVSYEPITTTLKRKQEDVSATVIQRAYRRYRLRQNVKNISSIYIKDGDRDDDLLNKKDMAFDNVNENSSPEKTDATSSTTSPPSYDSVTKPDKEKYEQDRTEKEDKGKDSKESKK
Nature of the experiment: Manual patch clamp, internal block of NaV1.7 current. The conditions noted are these: % inhibition at 3 μM test concentration, compound in internal solution, HEK293 cells. It is filed as cell-based. Put shortly:
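Whole-cell recordings at room temperature in tetracycline-induced HEK293 cells, compound in CsCl internal solution (pH 7.2), held at −100 mV with 10 ms steps to −20 mV. Four 30 s 5 Hz trains after 5 min baseline; fraction of peak inward current remaining computed as Itest/Ibaseline.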
In general terms: The patch-clamp technique gives a direct electrical read-out from membranes.
As to “1-benzyl-1-(2-((2-(dimethylcarbamoyl)-6-methylphenyl) amino)-2-oxoethyl) azepan-1-ium bromide [Compound 81A]”, the “Nav1.7 Intracellular Inhibition” value was “+++ (“+++” 90-70%)”.

The experiment is the same for the next values; noted with them: % inhibition at 3 μM test concentration, compound in internal solution, HEK293 cells, read-out: Nav1.7 Intracellular Inhibition.
Turning to `CCNC(=O)C1CCC[N+](CC(=O)Nc2c(C)cccc2C)(Cc2ccccc2)C1.[Br-]` (centres unmarked) [Compound 54A, 1-benzyl-1-(2-((2,6-dimethylphenyl)amino)-2-oxoethyl)-3-(ethylcarbamoyl) piperidin-1-ium bromide], the inhibition at 3 µM is > 90%.

Take `CCOC(=O)C1CCC[N+](CC(=O)Nc2c(C)cccc2C)(Cc2ccccc2)C1.[Br-]` (centres unmarked) [Compound 45A, 1-benzyl-1-(2-((2,6-dimethylphenyl)amino)-2-oxoethyl)-3-(ethoxycarbonyl) piperidin-1-ium bromide]: the inhibition at 3 µM lay within 70 to 90%.

In the case of `Cc1cccc(C)c1N1CCCC([N+]2(Cc3ccccc3)CCCC2)C1=O.[Br-]` (centres unmarked) [Compound 91A, 1-benzyl-1-(1-(2,6-dimethylphenyl)-2-oxopiperidin-3-yl) pyrrolidin-1-ium bromide], the inhibition at 3 µM fell in the range of 40 to 70%.

With `Cc1cccc(C)c1NC(=O)C[N+]1(Cc2ccccc2)CCCC(C(=O)N2CCCCC2)C1` (centres unmarked) [Compound 63A], the inhibition at 3 µM is > 90%.

For `[2H]c1c([2H])c([2H])c(C[N+]2(CC(=O)Nc3c(C)cccc3C)CCCCCC2)c([2H])c1[2H].[Cl-]` [Compound 33A, 1-(2-((2,6-dimethylphenyl)amino)-2-oxoethyl)-1-((phenyl-d5)methyl) azepan-1-ium chloride], the inhibition at 3 µM was > 90%.

Consider `CCN(CC)C(=O)C1CCC[N+](CC(=O)Nc2c(C)cccc2C)(Cc2ccccc2)C1` (centres unmarked) [Compound 66A], for which the inhibition at 3 µM lay in the range of 70 to 90%.

Take `Cc1cccc(C)c1NC(=O)C[N+]1(Cc2ccccc2)CCCC(C(N)=O)C1.[Br-]` (mixture of isomers) [Compound 53A, 1-benzyl-3-carbamoyl-1-(2-((2,6-dimethylphenyl)amino)-2-oxoethyl) piperidin-1-ium bromide]: the inhibition at 3 µM is 70 to 90%.

As to `CCCc1cccc(C)c1NC(=O)C[N+]1(Cc2ccccc2)CCCCCC1.[Br-]` [Compound 75A], the inhibition at 3 µM was > 90%.

Regarding `Cc1cccc(C)c1C(=O)OCC[N+]1(Cc2ccccc2)CCCCCC1.[Br-]` [Compound 82A, 1-benzyl-1-(2-((2,6-dimethylbenzoyl)oxy)ethyl) azepan-1-ium bromide], the inhibition at 3 µM lay within 70 to 90%.

On to `Cc1cccc(C)c1N(C)C(=O)C[N+]1(Cc2ccccc2)CCCCCC1` [Compound 38A, 1-benzyl-1-(2-((2,6-dimethylphenyl) (methyl)amino)-2-oxoethyl) azepan-1-ium formate], for which the inhibition at 3 µM is 70 to 90%.

With `Cc1cccc(C)c1N1CCC([N+]2(Cc3ccccc3)CCCCC2)C1=O.[Br-]` (centres unmarked) [Compound 89A, 1-benzyl-1-(1-(2,6-dimethylphenyl)-2-oxopyrrolidin-3-yl)piperidin-1-ium bromide], the inhibition at 3 µM was in the range of 70 to 90%.

Regarding `Cc1cccc(C(C)C)c1NC(=O)C[N+]1(Cc2ccccc2)CCCCCC1.[Br-]` [Compound 74A], the inhibition at 3 µM was in the range of 70 to 90%.

In the case of `Cc1cccc(C)c1NC(=O)C[N+]1(Cc2ccccc2)CCCC(C(=O)OC(C)C)C1` (mixture of isomers) [Compound 46A, 1-benzyl-1-(2-((2,6-dimethylphenyl)amino)-2-oxoethyl)-3-(isopropoxycarbonyl) piperidin-1-ium trifluoroacetate salt], the inhibition at 3 µM is > 90%.

On to `Cc1cccc(C)c1NC(=O)C[N+]1(Cc2ccccc2)CCCC(C(=O)N(C)C)C1.[Br-]` (centres unmarked) [Compound 65A], for which the inhibition at 3 µM was > 90%.

On to `CCOc1cccc(C)c1NC(=O)C[N+]1(Cc2ccccc2)CCCCCC1.[Br-]` [Compound 77A], for which the inhibition at 3 µM lay in the range of 70 to 90%.

Take `Cc1cccc(C)c1NC(=O)C[N+]1(Cc2ccccc2)CCCC(C(=O)NC(C)C)C1` (centres unmarked) [Compound 56A]: the inhibition at 3 µM was 40 to 70%.

Take `COC(=O)C1CC[N+](CC(=O)Nc2c(C)cccc2C)(Cc2ccccc2)CC1.[Br-]` (centres unmarked) [Compound 44A, 1-benzyl-1-(2-((2,6-dimethylphenyl)amino)-2-oxoethyl)-4-(methoxycarbonyl) piperidin-1-ium bromide]: the inhibition at 3 µM was > 90%.

In the case of `Cc1cccc(C#N)c1NC(=O)C[N+]1(Cc2ccccc2)CCCCCC1.[Br-]` [Compound 72A], the inhibition at 3 µM was > 90%.

Turning to `Cc1cccc(-c2ccccc2)c1NC(=O)C[N+]1(Cc2ccccc2)CCCCCC1.[Br-]` [Compound 76A], the inhibition at 3 µM is > 90%.

On to `COC(=O)c1ccc(C[N+]2(CC(=O)Nc3c(C)cccc3C)CCCCC2)cc1.[Br-]` [Compound 36A, 1-(2-((2,6-dimethylphenyl)amino)-2-oxoethyl)-1-(4-(methoxycarbonyl)benzyl) piperidin-1-ium bromide], for which the inhibition at 3 µM fell in the range of 70 to 90%.

Turning to `CCCNC(=O)C1CCC[N+](CC(=O)Nc2c(C)cccc2C)(Cc2ccccc2)C1` (centres unmarked) [Compound 57A], the inhibition at 3 µM was in the range of 70 to 90%.

Take `COC(=O)c1cccc(C[N+]2(CC(=O)Nc3c(C)cccc3C)CCCCC2)c1.[Br-]` [Compound 35A, 1-(2-((2,6-dimethylphenyl)amino)-2-oxoethyl)-1-(3-(methoxycarbonyl)benzyl) piperidin-1-ium bromide]: the inhibition at 3 µM is > 90%.

`Cc1cccc(F)c1NC(=O)C[N+]1(Cc2ccccc2)CCCCCC1.[Br-]` [Compound 69A, 1-benzyl-1-(2-((2-fluoro-6-methylphenyl)amino)-2-oxoethyl)azepan-1-ium bromide]: the inhibition at 3 µM was > 90%.

For the molecule `COC(=O)c1ccccc1C[N+]1(CC(=O)Nc2c(C)cccc2C)CCCCC1.[Br-]` [Compound 37A, 1-(2-((2,6-dimethylphenyl)amino)-2-oxoethyl)-1-(2-(methoxycarbonyl)benzyl) piperidin-1-ium bromide], the inhibition at 3 µM was in the range of 70 to 90%.

With `CNC(=O)C1CCC[N+](CC(=O)Nc2c(C)cccc2C)(Cc2ccccc2)C1` (centres unmarked) [Compound 55A], the inhibition at 3 µM was in the range of 70 to 90%.

As to `Cc1cccc(C)c1NC(=O)C[N+]1(Cc2ccccc2)CCCC(C(=O)N2CCCC2)C1` (centres unmarked) [Compound 62A], the inhibition at 3 µM is > 90%.

Take `CC[N+](CC)(CCCc1ccccc1)CC(=O)Nc1c(C)cccc1C.[Br-]` [Compound 86A, N-(2-((2,6-dimethylphenyl)amino)-2-oxoethyl)-N, N-diethyl-3-phenylpropan-1-aminium bromide]: the inhibition at 3 µM is > 90%.

Take `Cc1cccc(C)c1N1CCC([N+]2(Cc3ccccc3)CCCCCCC2)C1=O.[Br-]` (centres unmarked) [Compound 90A]: the inhibition at 3 µM was > 90%.

As to `COc1cccc(C)c1NC(=O)C[N+]1(Cc2ccccc2)CCCCCC1` [Compound 71A], the inhibition at 3 µM lay in the range of 70 to 90%.

Consider `Cc1cccc(C)c1NC(=O)C[N+]1(Cc2ccccc2)CCCC(F)(F)C1.[Br-]` (centres unmarked) [Compound 32A, 1-benzyl-1-(2-((2,6-dimethylphenyl)amino)-2-oxoethyl)-3,3-difluoropiperidin-1-ium bromide], for which the inhibition at 3 µM is > 90%.

For `CCCOC(=O)C1CCC[N+](CC(=O)Nc2c(C)cccc2C)(Cc2ccccc2)C1.[Br-]` (centres unmarked) [Compound 47A, 1-benzyl-1-(2-((2,6-dimethylphenyl)amino)-2-oxoethyl)-3-(propoxycarbonyl) piperidin-1-ium bromide], the inhibition at 3 µM is > 90%.

For `CCC(=O)Oc1cccc(C)c1NC(=O)C[N+]1(Cc2ccccc2)CCCCCC1.[Br-]` [Compound 80A, 1-benzyl-1-(2-((2-methyl-6-(propionyloxy)phenyl)amino)-2-oxoethyl) azepan-1-ium bromide], the inhibition at 3 µM is > 90%.

Regarding `CCC(=O)OC1CCC[N+](CC(=O)Nc2c(C)cccc2C)(Cc2ccccc2)C1.[Br-]` (centres unmarked) [Compound 52A, 1-benzyl-1-(2-((2,6-dimethylphenyl)amino)-2-oxoethyl)-3-(propionyloxy) piperidin-1-ium bromide], the inhibition at 3 µM is > 90%.

Consider `CCCOC(=O)N1CCC[N+](CC(=O)Nc2c(C)cccc2C)(Cc2ccccc2)CC1.[Br-]` (centres unmarked) [Compound 68A, 1-benzyl-1-(2-((2,6-dimethylphenyl)amino)-2-oxoethyl)-4-(propoxycarbonyl)-1,4-diazepan-1-ium bromide], for which the inhibition at 3 µM is > 90%.

Staying with this experiment, now noted: % inhibition at 10 μM test concentration, compound in internal solution, HEK293 cells, read-out: Nav1.7 Intracellular Inhibition.
`CCCCNc1ccc(NC(=O)C[N+]2(Cc3ccccc3)CCCCCC2)cc1.O=C[O-]` [Compound 41A, 1-benzyl-1-(2-((4-(butylamino)phenyl)amino)-2-oxoethyl) azepan-1-ium formate]: the inhibition at 10 µM was 70 to 95%.

In the case of `COC(=O)c1ccccc1C[N+]1(CC(=O)Nc2c(C)cccc2C)CCCCC1.[Br-]` [Compound 37A, 1-(2-((2,6-dimethylphenyl)amino)-2-oxoethyl)-1-(2-(methoxycarbonyl)benzyl) piperidin-1-ium bromide], the inhibition at 10 µM was 70 to 95%.

In the case of `CC[N+](CC)(CCCc1ccccc1)CC(=O)Nc1c(C)cccc1C.[Br-]` [Compound 86A, N-(2-((2,6-dimethylphenyl)amino)-2-oxoethyl)-N, N-diethyl-3-phenylpropan-1-aminium bromide], the inhibition at 10 µM was > 95%.

For the origin of these results see US11603355B2, “Charged ion channel blockers and methods for use” (Nocion Therapeutics, Inc., priority 2019, dated 2023).
